Legend:
Target Negative Cell = experiment: Tumor cell line assay Example 2b, target negative cells; type: cell-based; conditions: hemiasterlin derivatives, 120 hrs
Protocol: (§1) Cytotoxicity effects of test compounds on target positive and target negative cells were measured with a cell proliferation assay. Tumor cell lines were obtained from American Type Culture Collection (ATCC) and maintained in Ham's F-12: high glucose DMEM (50:50) glucose medium supplemented with 10% heat-inactivated fetal bovine serum, 1% Penicillin/Streptomcin and 2 mmol/L L-glutamax. Target positive and negative cells (a total of 625 cells per well) were seeded in a volume of 25 μL in a 384-well flat bottom white polystyrene plate. The cells were allowed to adhere overnight at 37° C. in a CO2 incubator. ADC variants were formulated at 2× concentration in DMEM/F12 medium and filtered through MultiScreen HTS 96-Well Filter Plates. Filter sterilized ADCs were serial diluted (1:3) and 25 μL of diluted samples were added into each treatment wells. Plates were then cultured at 37° C. in a CO2 incubator for 120 hrs. For cell viability measurement, 30 μL of Cell Titer-Glo® reagent (Promega Corp) was added into each well, and plates processed as per product instructions. Relative luminescence was measured on an ENVISION® plate reader (Perkin-Elmer; Waltham, Mass.). Relative luminescence readings were converted to % viability using untreated cells as controls. Data was fitted with non-linear regression analysis, using log(inhibitor) vs. response, variable slope, 4 parameter fit equation using GraphPad Prism (GraphPad v 5.00, Software; San Diego, Calif.). Data was expressed as % relative cell viability vs. dose of ADC in nM.

Target Positive Cell = experiment: Tumor cell line assay Example 2b, target positive cells; type: cell-based; conditions: hemiasterlin derivatives, 120 hrs
Protocol: as §1

JVM-13 (CLL) = experiment: Cell binding assay anti-CD74, JVM-13; conditions: Leukemia
Protocol: (§2) Cell lines were maintained in RPMI, high glucose (Cellgro-Mediatech; Manassas, Va.) supplemented with 20% heat-inactivated fetal bovine serum (Hyclone; Thermo Scientific; Waltham, Mass.), 2 mM glutamax (Invitrogen; Carlsbad, Calif.) and 1× Pencillin/streptomycin (Cellgro-Mediatech; Manassas, Va.). Cells were harvested and re-suspended in FACS buffer (DPBS buffer supplemented with 1% bovine serum albumin). A total of 200,000 cells per well were incubated on ice with serial dilutions of anti-CD74 lead SP7919 without conjugation for 60 minutes. Cells were washed twice with ice-cold FACS buffer and incubated with 5 ug/ml Alexa 647 labeled donkey anti-human IgG antibody (Jackson Immune-Research) on ice for another 60 mins. Unstained cells and cells stained with secondary antibody alone were used as controls. Samples were then washed twice using FACS buffer and analyzed using a BD FACS Canto system. Mean fluorescence intensities were fitted using non-linear regression analysis with one site specific binding equation on GraphPad Prism. Data was expressed as geometric mean fluorescent intensity vs. antibody concentration in nM.

BDCM (AML) = experiment: Cell binding assay anti-CD74, BDCM; conditions: Leukemia
Protocol: as §2

RPMI-6666 (HL) = experiment: Cell binding assay anti-CD74, RPMI-6666; conditions: B-Lymphoma
Protocol: as §2

ARD (MM) = experiment: Cell binding assay anti-CD74, ARD; conditions: Multiple Myeloma
Protocol: as §2

RPMI-8226 (MM) = experiment: Cell binding assay anti-CD74, RPMI-8226; conditions: Multiple Myeloma
Protocol: as §2

SUP-B15 (ALL) = experiment: Cell binding assay anti-CD74, SUP-B15; conditions: Leukemia
Protocol: as §2

SU-DHL-6 (NHL) = experiment: Cell binding assay anti-CD74, SU-DHL-6; conditions: B-Lymphoma
Protocol: as §2

**Q.** For `CN[C@H](C(=O)N[C@H](C(=O)N(C)[C@H](/C=C(\C)C(=O)O)C(C)C)C(C)(C)C)C(C)(C)c1cccc(NC(=O)OCc2ccc(NC(=O)[C@H](CCCNC(N)=O)NC(=O)[C@@H](NC(=O)CCC(=O)N3Cc4ccccc4C#Cc4ccccc43)C(C)C)cc2)c1` (single isomer, unassigned) [Compound 101a], which IC50 (Target Negative Cell) is on record?
**A.** 2010 nM

**Q.** And the “Target Negative Cell Span (%)” value (Target Negative Cell)?
**A.** 110%

**Q.** And the IC50 (Target Positive Cell)?
**A.** 222 nM

**Q.** And the “Target Positive Cell Span (%)” value (Target Positive Cell)?
**A.** 93%

**Q.** Which IC50 (Target Negative Cell) does the source give for `CN[C@H](C(=O)NC(C(=O)N(C)[C@H](/C=C(\C)C(=O)O)C(C)C)C(C)(C)C)C(C)(C)c1cccc(NC(=O)OCc2cc(C)c(OC3OC(C(=O)O)C(O)C(O)C3O)c(NC(=O)CCNC(=O)CCCCC(=O)N3Cc4ccccc4C#Cc4ccccc43)c2)c1` (stereo partly drawn) [Compound 109a] here?
**A.** 2440 nM

**Q.** What about the “Target Negative Cell Span (%)” value (Target Negative Cell) of the same molecule?
**A.** 95%

**Q.** And the IC50 (Target Positive Cell)?
**A.** 661 nM

**Q.** And the “Target Positive Cell Span (%)” value (Target Positive Cell)?
**A.** 92%

**Q.** Which IC50 (Target Negative Cell) does the source give for `CN[C@H](C(=O)N[C@H](C(=O)N(C)[C@H](/C=C(\C)C(=O)O)C(C)C)C(C)(C)C)C(C)(C)c1cccc(NC(=O)OCc2ccc(NC(=O)[C@H](C)NC(=O)[C@@H](NC(=O)CCCCC(=O)N3Cc4ccccc4C#Cc4ccccc43)C(C)C)cc2)c1` [Compound 110a] here?
**A.** 337 nM

**Q.** And the “Target Negative Cell Span (%)” value (Target Negative Cell)?
**A.** 90%

**Q.** And the IC50 (Target Positive Cell)?
**A.** 26 nM

**Q.** What about the “Target Positive Cell Span (%)” value (Target Positive Cell) of the same molecule?
**A.** 93%

**Q.** For `CNC(C(=O)N[C@H](C(=O)N(C)[C@H](/C=C(\C)C(=O)O)C(C)C)C(C)(C)C)C(C)(C)c1cccc(NC(=O)[C@H](C)NC(=O)[C@@H](NC(=O)CCCCC(=O)N2Cc3ccccc3C#Cc3ccccc32)C(C)C)c1` (stereo partly drawn) [Compound 111a], which IC50 (Target Negative Cell) is on record?
**A.** 717 nM

**Q.** What about the “Target Negative Cell Span (%)” value (Target Negative Cell) of the same molecule?
**A.** 91%

**Q.** And the IC50 (Target Positive Cell)?
**A.** 65 nM

**Q.** And the “Target Positive Cell Span (%)” value (Target Positive Cell)?
**A.** 92%

B1: anti-CD74: anti-CD74 lead SP7919 without conjugation (antibody, V domains shown)
VH: QVQLVESGGGVVQPGRSLRLSCAASGFNFSDYGMHWVRQAPGKGLEWVAVIWYDGSISYYADSVKGRFTISRDNSKNTLYLQMNSLRAEDTAVYYCARGGTVEHGAVYGTDVWGQGTTVTVSS
VL: DIQMTQSPSSVSASVGDRVTITCRASQGIGSWLAWYQQKPGKAPKLLIYAADRLQSGVPSRFSGSGSGTDFTLTISSLQPEDFATYYCQQYHTYPLTFGGGTKVEIK
modifications: non-natural residues
**Q.** Which results are given for B1?
**A.** Cell Binding anti-CD74 Bmax (JVM-13 (CLL)): 447; Kd (JVM-13 (CLL)): 2.5 nM; Cell Binding anti-CD74 Bmax (BDCM (AML)): 3059; Kd (BDCM (AML)): 4.5 nM; Cell Binding anti-CD74 Bmax (RPMI-6666 (HL)): 3879; Kd (RPMI-6666 (HL)): 2.3 nM; Cell Binding anti-CD74 Bmax (ARD (MM)): 190; Kd (ARD (MM)): 2.6 nM; Cell Binding anti-CD74 Bmax (RPMI-8226 (MM)): 119; Kd (RPMI-8226 (MM)): 3.6 nM; Cell Binding anti-CD74 Bmax (SUP-B15 (ALL)): 680; Kd (SUP-B15 (ALL)): 3.5 nM; Cell Binding anti-CD74 Bmax (SU-DHL-6 (NHL)): 1565; Kd (SU-DHL-6 (NHL)): 2 nM

Reference: patent publication US11866515B2, “Hemiasterlin derivatives for conjugation and therapy” (priority 2015, dated 2024)
